In brackets after ≈: the same amount, converted by molar mass.
Experiments:
[1] = human, microsomes, 1 h, 1 µM
physchem [2] = settings: octanol/water, pH 7.4
in vitro [3] = settings: human, liver microsomes
physchem [4] = settings: HCl, pH 2, pH 2
in vitro [5] = settings: mouse, liver microsomes
in vitro [6] = settings: mouse, liver microsomes; remark: listed apart in the source
physchem [7] = settings: PBS, pH 6.5, pH 6.5
[8] = mouse, microsomes, 1 h, 1 µM
in vitro [9] = settings: human, liver microsomes; remark: listed apart in the source
[10] = mouse, blood, 2 h; at 1 µg/mL
[11] = Volume of distribution at steady state in Balb/C mouse plasma at 3.5 mg/kg, iv up to 24 hrs by LC-MS analysis; type: ADME, organism-based; settings: read-out: Vdss
[12] = AUC(0 to infinity) in Balb/C mouse plasma at 3.5 mg/kg, iv up to 24 hrs by LC-MS analysis; type: ADME, organism-based; set-up: route intravenous, dose 3.5 mg/kg, time <=24
in vitro [13] = settings: Balb/C, mouse, plasma; at 1 µg/mL
[14] = Clearance in Sprague-Dawley rat renal blood at 2.6 mg/kg, iv up to 24 hrs by LC-MS analysis; type: ADME, organism-based; settings: whole blood
[15] = AUC(0 to infinity) in Sprague-Dawley rat plasma at 2.6 mg/kg, iv up to 24 hrs by LC-MS analysis; type: ADME, organism-based; set-up: route intravenous, dose 2.6 mg/kg, time <=24
[16] = Clearance in Sprague-Dawley rat blood at 2.6 mg/kg, iv up to 24 hrs by LC-MS analysis; type: ADME, organism-based; settings: whole blood
[17] = Drug excretion in Sprague-Dawley rat urine at 2.6 mg/kg, iv up to 24 hrs by LC-MS analysis; type: ADME, organism-based; settings: read-out: Drug excretion
[18] = Plasma clearance in Balb/C mouse at 3.5 mg/kg, iv up to 24 hrs by LC-MS analysis; type: ADME, organism-based
[19] = Volume of distribution at steady state in Sprague-Dawley rat plasma at 2.6 mg/kg, iv up to 24 hrs by LC-MS analysis; type: ADME, organism-based; settings: read-out: Vdss
[20] = biological target: Sodium channel protein type 5 subunit alpha (Homo sapiens, UniProt Q14524)
Sodium channel protein type 5 subunit alpha, sequence (Q14524 whole entry): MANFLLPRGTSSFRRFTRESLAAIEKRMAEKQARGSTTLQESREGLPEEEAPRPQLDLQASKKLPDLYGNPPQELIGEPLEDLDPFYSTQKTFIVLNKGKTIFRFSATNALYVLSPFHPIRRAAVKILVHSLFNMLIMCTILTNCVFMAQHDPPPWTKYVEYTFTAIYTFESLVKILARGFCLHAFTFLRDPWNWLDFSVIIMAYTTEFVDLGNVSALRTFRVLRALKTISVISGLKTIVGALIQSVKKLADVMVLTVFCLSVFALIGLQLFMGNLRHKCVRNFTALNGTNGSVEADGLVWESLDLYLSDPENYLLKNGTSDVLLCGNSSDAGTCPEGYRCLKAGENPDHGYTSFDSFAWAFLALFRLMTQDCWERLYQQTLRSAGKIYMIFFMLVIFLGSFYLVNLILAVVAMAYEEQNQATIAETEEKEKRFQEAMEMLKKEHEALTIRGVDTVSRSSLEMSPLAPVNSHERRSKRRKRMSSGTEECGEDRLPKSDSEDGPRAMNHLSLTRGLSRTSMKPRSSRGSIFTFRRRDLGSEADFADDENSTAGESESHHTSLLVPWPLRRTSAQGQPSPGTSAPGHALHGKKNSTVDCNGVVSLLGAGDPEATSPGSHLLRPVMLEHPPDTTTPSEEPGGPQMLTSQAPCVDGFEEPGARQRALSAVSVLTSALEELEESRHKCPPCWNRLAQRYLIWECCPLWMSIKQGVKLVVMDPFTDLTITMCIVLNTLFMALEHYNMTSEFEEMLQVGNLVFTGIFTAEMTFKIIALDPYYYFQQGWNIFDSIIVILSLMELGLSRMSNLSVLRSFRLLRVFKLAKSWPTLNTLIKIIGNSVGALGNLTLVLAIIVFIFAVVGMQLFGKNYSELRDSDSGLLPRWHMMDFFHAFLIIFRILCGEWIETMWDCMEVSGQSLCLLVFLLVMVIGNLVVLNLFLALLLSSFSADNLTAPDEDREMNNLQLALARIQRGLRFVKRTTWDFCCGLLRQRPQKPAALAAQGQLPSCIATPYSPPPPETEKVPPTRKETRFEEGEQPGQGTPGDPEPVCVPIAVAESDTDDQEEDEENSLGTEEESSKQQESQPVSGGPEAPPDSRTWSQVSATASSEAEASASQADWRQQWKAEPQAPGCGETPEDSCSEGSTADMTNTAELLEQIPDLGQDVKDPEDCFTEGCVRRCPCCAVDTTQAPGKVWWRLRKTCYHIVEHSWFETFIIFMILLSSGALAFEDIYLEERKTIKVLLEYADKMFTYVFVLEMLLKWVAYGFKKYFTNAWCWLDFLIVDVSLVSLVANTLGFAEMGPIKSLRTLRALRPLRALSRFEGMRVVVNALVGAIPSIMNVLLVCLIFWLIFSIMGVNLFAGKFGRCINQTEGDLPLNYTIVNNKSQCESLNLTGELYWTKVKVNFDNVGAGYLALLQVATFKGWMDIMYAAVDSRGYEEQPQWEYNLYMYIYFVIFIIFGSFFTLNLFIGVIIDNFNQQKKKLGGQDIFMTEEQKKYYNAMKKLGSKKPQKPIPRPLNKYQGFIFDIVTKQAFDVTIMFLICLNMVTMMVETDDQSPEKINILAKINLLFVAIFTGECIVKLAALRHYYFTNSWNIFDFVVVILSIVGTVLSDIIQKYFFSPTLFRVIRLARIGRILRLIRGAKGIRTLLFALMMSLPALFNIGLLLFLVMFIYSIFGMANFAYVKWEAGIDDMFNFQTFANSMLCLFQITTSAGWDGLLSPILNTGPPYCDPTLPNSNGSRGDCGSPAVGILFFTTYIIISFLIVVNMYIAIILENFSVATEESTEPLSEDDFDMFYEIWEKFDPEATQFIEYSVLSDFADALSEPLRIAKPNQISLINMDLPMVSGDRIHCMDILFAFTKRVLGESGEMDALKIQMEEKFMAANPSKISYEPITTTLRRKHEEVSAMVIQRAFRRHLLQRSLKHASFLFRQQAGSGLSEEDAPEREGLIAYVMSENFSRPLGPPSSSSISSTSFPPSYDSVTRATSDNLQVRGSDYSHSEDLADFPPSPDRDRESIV

in vitro [21] = settings: Balb/C, mouse, plasma; at 1 µg/mL; remark: listed apart in the source
[22] = Plasma clearance in Sprague-Dawley rat at 2.6 mg/kg, iv up to 24 hrs by LC-MS analysis; type: ADME, organism-based
cells = settings: Homo sapiens, HEK293, 10 min
[23] = Volume of distribution at steady state in Balb/C mouse blood at 3.5 mg/kg, iv up to 24 hrs by LC-MS analysis; type: ADME, organism-based; settings: whole blood, read-out: Vdss
[24] = Half life in Sprague-Dawley rat at 2.6 mg/kg, iv up to 24 hrs by LC-MS analysis; type: ADME, organism-based; settings: in vivo
in vivo = settings: Balb/C, mouse, po
[25] = Clearance in Balb/C mouse blood at 3.5 mg/kg, iv up to 24 hrs by LC-MS analysis; type: ADME, organism-based; settings: whole blood
[26] = Volume of distribution at steady state in Sprague-Dawley rat blood at 2.6 mg/kg, iv up to 24 hrs by LC-MS analysis; type: ADME, organism-based; settings: whole blood, read-out: Vdss
[27] = Apparent half life in Balb/C mouse at 3.5 mg/kg, iv up to 24 hrs by LC-MS analysis; type: ADME, organism-based; settings: in vivo, read-out: t1/2(app) (converted)
[28] = Plasma clearance in Sprague-Dawley rat at 2.9 mg/kg, iv up to 24 hrs by LC-MS analysis; type: ADME, organism-based
[29] = Clearance in Sprague-Dawley rat blood at 2.9 mg/kg, iv up to 24 hrs by LC-MS analysis; type: ADME, organism-based; settings: whole blood
in vitro [30] = settings: human, Caco-2
[31] = Clearance in Balb/C mouse blood at 1.9 mg/kg, iv up to 24 hrs by LC-MS analysis; type: ADME, organism-based; settings: whole blood
in vitro [32] = settings: human, Caco-2; remark: listed apart in the source
[33] = Apparent half life in Balb/C mouse at 1.9 mg/kg, iv up to 24 hrs by LC-MS analysis; type: ADME, organism-based; settings: in vivo, read-out: t1/2(app) (converted)
[34] = AUC(0 to infinity) in Sprague-Dawley rat plasma at 2.9 mg/kg, iv up to 24 hrs by LC-MS analysis; type: ADME, organism-based; set-up: route intravenous, dose 2.9 mg/kg, time <=24
[35] = biological target: Voltage-gated inwardly rectifying potassium channel KCNH2 (Homo sapiens, UniProt Q12809)
Voltage-gated inwardly rectifying potassium channel KCNH2, sequence (Q12809 whole entry): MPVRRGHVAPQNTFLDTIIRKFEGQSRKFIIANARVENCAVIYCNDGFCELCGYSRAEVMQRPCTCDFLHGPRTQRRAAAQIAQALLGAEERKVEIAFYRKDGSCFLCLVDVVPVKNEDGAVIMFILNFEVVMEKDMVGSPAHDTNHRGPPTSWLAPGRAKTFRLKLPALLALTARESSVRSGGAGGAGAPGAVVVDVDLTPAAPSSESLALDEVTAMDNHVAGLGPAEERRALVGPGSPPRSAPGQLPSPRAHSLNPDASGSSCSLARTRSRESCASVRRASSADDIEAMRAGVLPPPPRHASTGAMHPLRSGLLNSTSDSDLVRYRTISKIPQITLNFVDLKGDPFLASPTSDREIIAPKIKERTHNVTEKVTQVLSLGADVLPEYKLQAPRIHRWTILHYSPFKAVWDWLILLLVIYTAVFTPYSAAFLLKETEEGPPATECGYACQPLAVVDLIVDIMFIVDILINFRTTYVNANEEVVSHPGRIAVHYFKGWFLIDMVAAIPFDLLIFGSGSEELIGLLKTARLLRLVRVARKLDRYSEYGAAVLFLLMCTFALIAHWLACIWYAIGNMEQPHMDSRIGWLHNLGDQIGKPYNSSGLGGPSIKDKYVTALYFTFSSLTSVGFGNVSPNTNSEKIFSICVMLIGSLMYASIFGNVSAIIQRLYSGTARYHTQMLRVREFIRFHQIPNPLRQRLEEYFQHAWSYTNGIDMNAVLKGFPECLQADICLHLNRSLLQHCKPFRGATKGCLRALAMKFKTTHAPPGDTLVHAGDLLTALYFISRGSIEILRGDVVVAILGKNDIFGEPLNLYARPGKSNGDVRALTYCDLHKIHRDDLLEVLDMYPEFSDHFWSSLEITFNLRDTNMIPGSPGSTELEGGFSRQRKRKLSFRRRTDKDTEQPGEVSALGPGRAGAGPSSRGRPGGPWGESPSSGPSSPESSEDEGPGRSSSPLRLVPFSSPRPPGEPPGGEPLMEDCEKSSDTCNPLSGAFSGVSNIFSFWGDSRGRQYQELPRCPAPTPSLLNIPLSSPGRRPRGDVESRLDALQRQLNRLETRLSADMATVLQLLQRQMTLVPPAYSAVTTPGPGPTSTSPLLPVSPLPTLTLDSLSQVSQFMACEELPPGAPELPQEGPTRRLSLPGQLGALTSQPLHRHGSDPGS

[36] = Volume of distribution at steady state in Sprague-Dawley rat blood at 2.9 mg/kg, iv up to 24 hrs by LC-MS analysis; type: ADME, organism-based; settings: whole blood, read-out: Vdss
in vitro [37] = settings: human, Caco-2; remark: listed apart in the source
[38] = Volume of distribution at steady state in Balb/C mouse plasma at 1.9 mg/kg, iv up to 24 hrs by LC-MS analysis; type: ADME, organism-based; settings: read-out: Vdss
[39] = AUC(0 to infinity) in Balb/C mouse plasma at 1.9 mg/kg, iv up to 24 hrs by LC-MS analysis; type: ADME, organism-based; set-up: route intravenous, dose 1.9 mg/kg, time <=24
[40] = Volume of distribution at steady state in Sprague-Dawley rat plasma at 2.9 mg/kg, iv up to 24 hrs by LC-MS analysis; type: ADME, organism-based; settings: read-out: Vdss
[41] = Half life in Sprague-Dawley rat at 2.9 mg/kg, iv up to 24 hrs by LC-MS analysis; type: ADME, organism-based; settings: in vivo
[42] = Plasma clearance in Balb/C mouse at 1.9 mg/kg, iv up to 24 hrs by LC-MS analysis; type: ADME, organism-based
[43] = Drug excretion in Sprague-Dawley rat urine at 2.9 mg/kg, iv up to 24 hrs by LC-MS analysis; type: ADME, organism-based; settings: read-out: Drug excretion
[44] = Volume of distribution at steady state in Balb/C mouse blood at 1.9 mg/kg, iv up to 24 hrs by LC-MS analysis; type: ADME, organism-based; settings: whole blood, read-out: Vdss
in vitro [45] = settings: human, Caco-2; remark: listed apart in the source
[46] = Clearance in Sprague-Dawley rat renal blood at 2.9 mg/kg, iv up to 24 hrs by LC-MS analysis; type: ADME, organism-based; settings: whole blood
in vitro [47] = settings: human, Caco-2; remark: listed apart in the source

Compound | CL free [1] [µL/min/mg] | logD (physchem [2]) | microsomal CLint at 1 h, 1 µM (in vitro [3]) [µL/min/mg] | solubility kinetic (physchem [4]) [µg/mL] | half-life at 1 h, 1 µM (in vitro [5]) [min] | microsomal CLint at 1 h, 1 µM (in vitro [6]) [µL/min/mg] | solubility kinetic (physchem [7]) [µg/mL] | CL free [8] [µL/min/mg] | half-life at 1 h, 1 µM (in vitro [9]) [min] | Stabilty [10] | fraction unbound at […], 1 ug/ml (in vitro [13]) | IC50 [20] [µM] | metabolised at 4 h, 1 ug/ml (in vitro [21]) [%] | IC50 (cells) [µM] | Papp B→A at 2 h, 20 µM (in vitro [37]) [×10⁻⁶ cm/s] | Papp A→B at 2 h, 20 µM (in vitro [45]) [×10⁻⁶ cm/s] | further results
N=C(N)NC(=O)c1nc(-c2ccco2)c(N)nc1N | 55 | 1.4 | 50 | > 100 | 7.7 | 224 | 25 (≈ 95.7 µM) | 245 | 35 | – | – | – | – | – | – | – | –
N=C(N)NC(=O)c1nc(-c2ccc(C(F)(F)F)cc2)c(N)nc1N | 11 | 2.8 | < 7 | > 100 | 153 | 11 | 50 (≈ 147 µM) | 17 | > 255 | – | – | – | – | – | – | – | –
N=C(N)NC(=O)c1nc(-c2cc3ccccc3o2)c(N)nc1N | 84 | – | 53 | – | 16 | 106 | – | 167 | 33 | Unstable | 0.06 | 22 | < 6 | 22 | – | – | Vd [11]: 4.1 L/kg; AUC(0-inf) [12]: 1.6 µM·h; CL renal at 24 h [14]: 5.6 mL/min/kg; AUC(0-inf) [15]: 1.6 µM·h; clearance [16]: 44.7 mL/min/kg; dose excreted at 24 h [17]: 12.5%; clearance [18]: 114 mL/min/kg; Vd [19]: 17.5 L/kg; clearance [22]: 87.7 mL/min/kg; Vd [23]: 2.2 L/kg; half-life [24]: 294 min; bioavailability at 24 h (in vivo): < 5%; clearance [25]: 60 mL/min/kg; Vd [26]: 8.9 L/kg; half-life [27]: 43.8 min
COc1ncc(-c2nc(C(=O)NC(=N)N)c(N)nc2N)cn1 | < 7 | – | < 7 | > 100 | > 255 | < 7 | 12.5 (≈ 41.2 µM) | < 7 | > 255 | Unstable | 0.4 | > 30 | < 6 | > 30 | 0.26 | 0.57 | clearance [28]: 51.3 mL/min/kg; clearance [29]: 78.9 mL/min/kg; recovery at 2 h, 20 µM (in vitro [30]): 104%; clearance [31]: 41 mL/min/kg; recovery at 2 h, 20 µM (in vitro [32]): 97%; half-life [33]: 37.2 min; AUC(0-inf) [34]: 3.2 µM·h; IC50 [35]: > 30 µM; Vd [36]: 5.2 L/kg; bioavailability at 24 h (in vivo; at 1.9 to 3.5 mg/kg): 0.81%; Vd [38]: 0.7 L/kg; AUC(0-inf) [39]: 2.7 µM·h; Vd [40]: 3.4 L/kg; half-life [41]: 402 min; clearance [42]: 38 mL/min/kg; dose excreted at 24 h [43]: 36.4%; Vd [44]: 0.7 L/kg; CL renal at 24 h [46]: 29.2 mL/min/kg
N=C(N)NC(=O)c1nc(-c2cc3ccccc3s2)c(N)nc1N | 41 | 2.9 | 25 | 50 (≈ 153 µM) | 7 | 252 | 12.5 (≈ 38.2 µM) | 417 | 68 | – | – | – | – | – | – | – | –
CC(C)NCC(O)COc1cccc2ccccc12 (centres undefined) [PROPRANOLOL] | – | – | – | – | – | – | – | – | – | – | – | – | – | – | 51 | 49 | efflux ratio at 2 h, 20 µM (in vitro [47]): 1.1

— ChEMBL document CHEMBL4732263 (Bioorg Med Chem, 2021)
